The values that follow come from PMC5439695 (PLoS ONE, 2017).

Like-named read-outs stand apart in the source and are kept apart here. Bounds are passed on as bounds.

Data set [1] concerns HEK293 and HepG2 cell lines.
The test system of a further data set is NRF2. The settings on record: cited from earlier work; for Nrf2 TF activity (in words): Tox21 assay.
In data set [2] the test system is HepG2 cells. As to the kind of experiment: CellTox Green Cytotoxicity Assay (flor) in HepG2, HepG2[flor].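 As to hepg2 flor emax 0: percent activity versus DMSO-only wells with baseline rescaled to 0%.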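 As to hepg2 flor emax 40: percent activity versus DMSO-only wells with baseline rescaled to 0%.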 Conditions: HepG2 flor; for EC50: Homo sapiens, given as negative log-scale values. Format: cell-based, human.
In data set [3] the test system is HEK293 cells. As to the kind of experiment: cells. Conditions: Homo sapiens.
Data set [4] deals with HepG2 cells. The settings on record: HepG2 glo.
Data set [5] deals with HEK293 cells. As to the kind of experiment: cells. Conditions: Homo sapiens. The source holds these as a separate data set.
In data set [6] the test system is HepG2 cells. Nature of the data set: cells. The settings on record: Homo sapiens.
Data set [7] concerns HEK293 cells. The settings on record: HEK293 glo.
Data set [8] has as its system HEK293 cells. The settings on record: HEK293 flor.

As for `CC(C)(c1ccc(O)cc1)c1ccc(O)cc1` [Bisphenol A], the “cytotoxicity kinetics activity profile in the four real-time cytotoxicity assays” value (“cytotoxicity kinetics activity profile” for short) in data set [1] (human) is “active only in HEK293[glo]”. For the same compound, the “Nrf2 TF activity (in words)” value with NRF2 was “increased Nrf2 TF activity”.
As for `CC(=O)O[C@H]1CC[C@@]2(C)C(=CC[C@@H]3[C@@H]2CC[C@]2(C)C(C(C)=O)=CC[C@@H]32)C1` [Dehydropregnenolone acetate], in the data set on NRF2, the “increase NRF2 TF activity, POD potency” value is on record as 4.85 log10(M)*-1.
As for `O=C(OC1CCCCC1)c1ccccc1C(=O)OC1CCCCC1` [Dicyclohexyl phthalate], the “increase NRF2 TF activity, POD potency” value in the data set with NRF2 is 4.18 log10(M)*-1.
On to `CC/C(=C(/CC)c1ccc(O)cc1)c1ccc(O)cc1` [Diethylstilbestrol, reference compound], for which the “cytotoxicity kinetics activity profile” value in [1] (human) is “active only in HEK293[glo]”. The “Nrf2 TF activity (in words)” value in the data set on NRF2 was “increased Nrf2 TF activity”.
As to `O.[Br-].[Br-].c1cc[n+]2c(c1)-c1cccc[n+]1CC2` [Diquat dibromide monohydrate], in the data set with NRF2, the “increase NRF2 TF activity, POD potency” value is on record as 5.17 log10(M)*-1.
For `CC(C)C(=O)Nc1ccc([N+](=O)[O-])c(C(F)(F)F)c1` [Flutamide, reference compound], the “cytotoxicity kinetics activity profile” value in [1] (human) is “active only in HEK293[glo]”. In addition, the “Nrf2 TF activity (in words)” value in the data set on NRF2 is listed as “increased Nrf2 TF activity”.
Regarding `CC(C)(O)C(=O)Nc1ccc([N+](=O)[O-])c(C(F)(F)F)c1` [Hydroxyflutamide, reference compound], the “cytotoxicity kinetics activity profile” value in [1] (human) is “active only in HEK293[glo]”. Moreover, in the data set with NRF2, the “Nrf2 TF activity (in words)” value is reported as “increased Nrf2 TF activity”.
For the compound `O=C(OCCN1CCOCC1)c1cccnc1Nc1cccc(C(F)(F)F)c1` [Morniflumate, reference compound], in the data set with NRF2, the “increase NRF2 TF activity, POD potency” value is on record as 4.54 log10(M)*-1.
Compound `O=S1(=O)OC(c2ccc(O)cc2)(c2ccc(O)cc2)c2ccccc21` [Phenol red] displayed an information in data set [1] (any activity in any time point/assay) of 1. Also, in the data set with HepG2 cells [2], the hepg2_flor_auc stood at 0 and the hepg2_flor_time was 48. Further, the hepg2_flor_bin entry in the data set with HepG2 cells [2] (kinetics bin) is “inactive”. For the same compound, in the data set with HepG2 cells [2] (time point 0), the hepg2_flor_emax_0 was 0, the hepg2_flor_pod_0 is on record as -4.417 and the hepg2_flor_wauc_0 is on record as 0. Further, in the data set on HepG2 cells [2] (time point 8), the hepg2_flor_emax_8 is 0, the hepg2_flor_pod_8 is on record as -4.417 and the hepg2_flor_wauc_8 is 0. In addition, in the data set on HepG2 cells [2] (time point 16), the hepg2_flor_emax_16 came to 0, the hepg2_flor_pod_16 is listed as -4.417 and the hepg2_flor_wauc_16 was 0. In the data set on HepG2 cells [2] (time point 24), this compound yielded a hepg2_flor_emax_24 of 0, a hepg2_flor_pod_24 of -4.417 and a hepg2_flor_wauc_24 of 0. Also, in the data set with HepG2 cells [2] (time point 32), the hepg2_flor_emax_32 stood at 0, the hepg2_flor_pod_32 is listed as -4.417 and the hepg2_flor_wauc_32 was 0. In the data set with HepG2 cells [2] (time point 40), this compound showed a hepg2_flor_emax_40 of 0, a hepg2_flor_pod_40 of -4.417 and a hepg2_flor_wauc_40 of 0. In addition, the EC50 in the data set with HepG2 cells [2] (time point 0, read-out: hepg2_flor_ec50_0) was above 38.3 µM. Moreover, the EC50 with HepG2 cells [2] (time point 8, read-out: hepg2_flor_ec50_8) was above 38.3 µM. Further, the EC50 in the data set with HepG2 cells [2] (time point 16, read-out: hepg2_flor_ec50_16) was above 38.3 µM. The EC50 with HepG2 cells [2] (time point 24, read-out: hepg2_flor_ec50_24) was above 38.3 µM. In the data set on HepG2 cells [2] (time point 32, read-out: hepg2_flor_ec50_32), the EC50 is above 38.3 µM. The EC50 with HepG2 cells [2] (time point 40, read-out: hepg2_flor_ec50_40) is above 38.3 µM. Besides, the EC50 in the data set with HEK293 cells [3] (HEK293, read-out: hek293_glo_ec50_0) is 25.6 µM. For the same compound, the EC50 in the data set on HEK293 cells [3] (HEK293, read-out: hek293_glo_ec50_8) was 25.6 µM. Further, in the data set on HEK293 cells [3] (HEK293, read-out: hek293_glo_ec50_16), the EC50 was 25.6 µM. The EC50 in the data set with HEK293 cells [3] (HEK293, read-out: hek293_glo_ec50_24) is above 38.3 µM. In addition, in the data set on HEK293 cells [3] (HEK293, read-out: hek293_glo_ec50_32), the EC50 is above 38.3 µM. The EC50 in the data set with HEK293 cells [3] (HEK293, read-out: hek293_glo_ec50_40) was above 38.3 µM. In addition, the hepg2_glo_auc with HepG2 cells [4] came to 0.5829. Besides, in the data set on HepG2 cells [4] (kinetics bin), the hepg2_glo_bin result is given as “inconclusive”. In the data set on HepG2 cells [4] (time point 0), this compound had a hepg2_glo_emax_0 of -25.8612, a hepg2_glo_pod_0 of -4.428 and a hepg2_glo_wauc_0 of 0.7068. For the same compound, in the data set on HepG2 cells [4] (time point 8), the hepg2_glo_emax_8 came to 0, the hepg2_glo_pod_8 is on record as -4.417 and the hepg2_glo_wauc_8 is 0. Also, in the data set with HepG2 cells [4] (time point 16), the hepg2_glo_emax_16 was determined as 0, the hepg2_glo_pod_16 is given as -4.417 and the hepg2_glo_wauc_16 is 0. In the data set with HepG2 cells [4] (time point 24), the hepg2_glo_emax_24 is given as 0, the hepg2_glo_pod_24 is recorded as -4.417 and the hepg2_glo_wauc_24 stood at 0. In the data set with HepG2 cells [4] (time point 32), this compound showed a hepg2_glo_emax_32 of 0, a hepg2_glo_pod_32 of -4.417 and a hepg2_glo_wauc_32 of 0. In the data set on HepG2 cells [4] (time point 40), this compound showed a hepg2_glo_emax_40 of 0, a hepg2_glo_pod_40 of -4.417 and a hepg2_glo_wauc_40 of 0. Besides, the EC50 with HEK293 cells [5] (HEK293, read-out: hek293_flor_ec50_0) is above 38.3 µM. Moreover, the EC50 in the data set on HEK293 cells [5] (HEK293, read-out: hek293_flor_ec50_8) is above 38.3 µM. Besides, the EC50 in the data set on HEK293 cells [5] (HEK293, read-out: hek293_flor_ec50_16) is above 38.3 µM. Further, the EC50 in the data set with HEK293 cells [5] (HEK293, read-out: hek293_flor_ec50_24) is above 38.3 µM. Also, the EC50 in the data set on HEK293 cells [5] (HEK293, read-out: hek293_flor_ec50_32) was above 38.3 µM. Moreover, the EC50 in the data set on HEK293 cells [5] (HEK293, read-out: hek293_flor_ec50_40) was above 38.3 µM. The EC50 with HepG2 cells [6] (HepG2, read-out: hepg2_glo_ec50_0) was 25.6 µM. The EC50 with HepG2 cells [6] (HepG2, read-out: hepg2_glo_ec50_8) is above 38.3 µM. Besides, the EC50 with HepG2 cells [6] (HepG2, read-out: hepg2_glo_ec50_16) is above 38.3 µM. Also, in the data set with HepG2 cells [6] (HepG2, read-out: hepg2_glo_ec50_24), the EC50 is above 38.3 µM. In addition, the EC50 in the data set on HepG2 cells [6] (HepG2, read-out: hepg2_glo_ec50_32) was above 38.3 µM. Besides, in the data set on HepG2 cells [6] (HepG2, read-out: hepg2_glo_ec50_40), the EC50 is above 38.3 µM. In the data set on HEK293 cells [7], this compound gave a hek293_glo_auc of 1.203 and a hek293_glo_time of 40. Further, the hek293_glo_bin entry in the data set on HEK293 cells [7] (kinetics bin) is reported as “no_cv (no_cv: time > 40)”. In the data set on HEK293 cells [7] (time point 0), the hek293_glo_emax_0 is listed as -33.7, the hek293_glo_pod_0 is recorded as -4.507 and the hek293_glo_wauc_0 worked out at 0.8079. Moreover, in the data set with HEK293 cells [7] (time point 8), the hek293_glo_emax_8 was -27.7816, the hek293_glo_pod_8 is -4.452 and the hek293_glo_wauc_8 stood at 0.7338. Moreover, in the data set with HEK293 cells [7] (time point 16), the hek293_glo_emax_16 is listed as -27.6507, the hek293_glo_pod_16 is given as -4.4502 and the hek293_glo_wauc_16 was 0.732. Besides, in the data set on HEK293 cells [7] (time point 24), the hek293_glo_emax_24 is on record as 0, the hek293_glo_pod_24 was -4.417 and the hek293_glo_wauc_24 is 0. For the same compound, in the data set on HEK293 cells [7] (time point 32), the hek293_glo_emax_32 amounted to 0, the hek293_glo_pod_32 is recorded as -4.417 and the hek293_glo_wauc_32 stood at 0. In addition, in the data set on HEK293 cells [7] (time point 40), the hek293_glo_emax_40 is 0, the hek293_glo_pod_40 was -4.417 and the hek293_glo_wauc_40 is given as 0. Moreover, in the data set on HEK293 cells [8], the hek293_flor_auc turned out to be 0 and the hek293_flor_time is 48. Also, in the data set with HEK293 cells [8] (kinetics bin), the hek293_flor_bin entry is “inactive”. Moreover, in the data set with HEK293 cells [8] (time point 0), the hek293_flor_emax_0 is 0, the hek293_flor_pod_0 is -4.417 and the hek293_flor_wauc_0 stood at 0. Further, in the data set on HEK293 cells [8] (time point 8), the hek293_flor_emax_8 is recorded as 0, the hek293_flor_pod_8 is recorded as -4.417 and the hek293_flor_wauc_8 amounted to 0. Further, in the data set with HEK293 cells [8] (time point 16), the hek293_flor_emax_16 came out at 0, the hek293_flor_pod_16 was -4.417 and the hek293_flor_wauc_16 worked out at 0. In the data set with HEK293 cells [8] (time point 24), the hek293_flor_emax_24 was determined as 0, the hek293_flor_pod_24 is -4.417 and the hek293_flor_wauc_24 was found to be 0. In the data set with HEK293 cells [8] (time point 32), this compound returned a hek293_flor_emax_32 of 0, a hek293_flor_pod_32 of -4.417 and a hek293_flor_wauc_32 of 0. In the data set with HEK293 cells [8] (time point 40), this compound came in with a hek293_flor_emax_40 of 0, a hek293_flor_pod_40 of -4.417 and a hek293_flor_wauc_40 of 0.
On to `CC12CC1(C)C(=O)N(c1cc(Cl)cc(Cl)c1)C2=O` (stereo not drawn) [procymidone, reference compound], for which the “cytotoxicity kinetics activity profile” value in [1] is reported as “no activity in all four real-time cytotoxicity assays”. Further, in the data set with NRF2, the “Nrf2 TF activity (in words)” value is given as “Weak Nrf2 activity”.
Regarding Phenol, isopropylated, phosphate (3:1), the “increase NRF2 TF activity, POD potency” value in the data set with NRF2 is 4.21 log10(M)*-1.
